We go through 1 molecule from patent EP0014443B1, “Dilutable alkyl-benzimidazolecarbamate formulation, process for its preparation and its use as biocide” (RIEDEL-DE HAEN AKTIENGESELLSCHAFT, priority 1979, dated 1980).

In brackets after ≈: the same amount, converted by molar mass. Read-outs that look alike come from different tables or passages of the source.

Data set [1] can be described thus: Solubility in solvents. The data set is classed as physicochemical. The settings on record: read-out: Löslichkeit. The source says:
Zum Vergleich : Die Löslichkeit von BCM beträgt in Wasser 6 ppm und in Butanol 600 ppm.

Data set [2] relates to holzverblauende Pilze. As to the kind of experiment: Münden strip method (Mündener Streifenmethode) on wood against blue-stain fungi. The settings on record: in usual wood preservative formulation (alkyd resin, Testbenzin 60); 25 GT product of Beispiel 1 in 1000 GT, or 0,25 % BCM as comparison. An excerpt:
25 GT eines Produktes gemäß Beispiel 1 werden zu 975 GT einer üblichen Holzschutzmittelformulierung gegeben, die zusammengesetzt ist aus 140 GT eines handelsüblichen Alkyldharzes, 4 GT Zinknaphthenat als Trockner, 4 GT eines handelsüblichen Hautverhütungsmittels, 30 GT Butyldiglykol und 797 GT Testbenzin 60.
Die Wirksamkeit der so biozid ausgerüsteten Holzschutzmittelformulierung gegen holzverblauende Pilze wird nach der Mündener Streifenmethode [H. Butin, Farbe und Lack, 71 (1965), 373] geprüft. Es ergibt sich eine bewuchsfreie Eindringtiefe von 3 bis 4 mm.
Zum Vergleich wird die oben angegebene übliche Holzschutzmittelformulierung mit 0,25 % Benzimidazolcarbaminsäuremethylester versetzt und unter gleichen Bedingungen geprüft. Es werden nur Eindringtiefen von 0,5 mm festgestellt.

Take `COC(=O)Nc1nc2ccccc2[nH]1` [II, Benzimidazolcarbaminsäuremethylester]: the solubility in data set [1] (organic solvent or mixture, in Butanol) was 600 µg/mL (≈ 3140 µM); in data set [1] (water, in Wasser) it was 6 µg/mL (≈ 31.4 µM). Further, the “bewuchsfreie Eindringtiefe” value in data set [2] is 0,5 mm.
